From patent US6399646B1 (priority 2001, dated 2002)
Read-outs that look alike come from different tables or passages of the source. Marks after values point to notes of the source that are not given here.

Columns and labels:
[1] = test system: Ralstonia; conditions: solution added to Ralstonia culture liquid in physiological brine; cited from earlier work
[2] = test system: Ralstonia solanacearum; type: in vivo; conditions: for Bacterial wilt severity: foliar application, tomato plants, scale 0=healthy to 4=dead plant
[3] = test system: Ralstonia; conditions: tomato plants transferred into hydroponic solutions inoculated with Ralstonia and previously treated with 3-IBA; more than 60% wilt in its absence; cited from earlier work

C[C@@H](CC(=O)O)c1c[nH]c2ccccc12 [(S)-3-(3-indolyl) butanoic acid]
Ralstonia growth (turbidity of culture liquid) [1]: suppression of Ralstonia growth

CC(CC(=O)O)c1c[nH]c2ccccc12 (centres unmarked) [3-IBA, 3-(3-indolyl) butanoic acid]
Bacterial wilt severity ([2]; higher concentration (2.0 lbs active ingredient per 100 gallons), rated 9/26/2000, six replications): 2.3 | Bacterial wilt severity ([2]; higher concentration (2.0 lbs active ingredient per 100 gallons), rated 9/27/2000): 3.0 | Bacterial wilt severity ([2]; higher concentration (2.0 lbs active ingredient per 100 gallons), rated 9/30/2000): 2.8 | Bacterial wilt severity ([2]; higher concentration (2.0 lbs active ingredient per 100 gallons), rated 10/04/2000): 3.3 | Bacterial wilt severity ([2]; higher concentration (2.0 lbs active ingredient per 100 gallons), rated 10/26/2000): 1.5*** | Bacterial wilt severity ([2]; low concentration (0.25 lbs active ingredient per 100 gallons), rated 9/26/2000, six replications): 2.5 | Bacterial wilt severity ([2]; low concentration (0.25 lbs active ingredient per 100 gallons), rated 9/27/2000): 3.0 | Bacterial wilt severity ([2]; low concentration (0.25 lbs active ingredient per 100 gallons), rated 9/30/2000): 4.0 | Bacterial wilt severity ([2]; low concentration (0.25 lbs active ingredient per 100 gallons), rated 10/04/2000): 3.8 | Bacterial wilt severity ([2]; low concentration (0.25 lbs active ingredient per 100 gallons), rated 10/26/2000): 4.0** | Plants revived and recovering at the end of the trial ([2]; higher concentration, foliar treatment prior to inoculation, of 6 tomato plants): 3 plants | State of the 6 treated plants by the end of the trial ([2]; low concentration, foliar treatment prior to inoculation, 6 tomato plants): all dead | Plants slightly wilted [3]: less than 10%
